These results are taken from patent publication US20140243404A1, “UNIQUE HALOGEN-INDUCED CYCLIZATIONS, REAGENTS THEREFOR, AND COMPOUNDS PRODUCED THEREBY” (The Trustees of Columbia University in the City of New York, priority 2010, published 2014).

Read-outs that look alike come from different tables or passages of the source.

Series [1] relates to reverse transcriptases of the Human Immunodeficiency Virus. Conditions: published indications, refs 7c, 7d, cited from earlier work.
The nature of series [2]: Storage and handling stability of the halonium reagents. It is filed as physicochemical.
Series [3] is described as follows: Solubility of the halonium reagents in organic solvents. The class given is physicochemical.

Turning to `CC1=CC[C@H]2C(C)(C)[C@@H](Br)CC[C@]2(C)[C@@H]1Cc1cc(O)c(CC(=O)O)cc1O` [peyssonoic acid A], the “inhibitor of the reverse transcriptases of the Human Immunodeficiency Virus” value in series [1] is given as “possessed such activity”.

For `CC[S+](Br)CC` [BDSB, bromodiethylsulfonium bromopentachloroantimonate], the “stable for” value was “at least 1 week” in series [2] (ambient temperature, enclosed vial) and “a year or more” in series [2] (−20° C.). Moreover, the solubility result in series [3] (acetone, methanol, ethanol, THF, reacts with these solvents) is recorded as “soluble”; in series [3] (ambient temperature, CH2Cl2, 1,2-dichloroethane, chloroform, toluene) it was “moderately to slightly soluble”; in series [3] (ambient temperature, MeNO2, EtNO2, MeCN, DMSO, DMF, EtOAc), “fully soluble”; in series [3] (ambient temperature, benzene, hexanes, pentane) it was “insoluble”; in series [3] (several organic solvents) it was “good solubility”.

As for `C=C1CC[C@H]2C(C)(C)[C@@H](Br)CC[C@]2(C)[C@@H]1Cc1cc(O)c(C=O)cc1O` [peyssonol A], the “inhibitor of the reverse transcriptases of the Human Immunodeficiency Virus” value in series [1] is “allosteric inhibitor of the reverse transcriptases”; in series [1] (listed as peysonnol A) it was “possessed such activity”.

Regarding `CC[S+](Cl)CC` [CDSC, Chlorodiethylsulfonium hexachloroantimonate], the “stable for” value in series [2] (−20° C.) is listed as “at least several months”.
